The values that follow come from US4333942A, “Anti-depressant and analgesic 4-phenoxypiperidines” (BYK Gulden Lomberg Chemische Fabrik GmbH, priority 1979, dated 1982).

Where two headings read alike, the source gives them in different places.

One data set concerns Reserpine ptosis. The data set is described as follows: Antiptotic action (Reserpine antagonism). The class given is in vivo, female albino mice NMRI. The conditions noted are these: Mus musculus. Here is the method: (§1) All the experiments are carried out on female albino mice NMRI of 20 to 30 g body weight. 5 to 20 animals are employed per dose and the dose/response relationship are determined.
Antiptotic action (Reserpine antagonism)
Subcutaneous administration of 2 mg/kg of reserpine to albino mice causes ptosis in the course of several hours [Reserpine Ptosis, Domenjoz and Theobald (1959), Arch, Int. Pharmacodyn. 120,450]. The test substances are administered to the animals orally in various doses 3 hours before the administration of reserpine. The intensity of ptosis is graded by a rating scale 3-2-1-0 (complete, moderate, slight, no ptosis) in the 2nd, 3rd and 4th hour after administration of the reserpine (that is 5, 6 and 7 hours after administration of the substance). The substances tested antagonize the ptosis according to the dose. The ED50 of the antagonistic action is evaluated in comparison to the daily reserpine control.

A further data set deals with thermal pain. The data set is described as follows: Tail flick test (analgesia). The class given is in vivo, female albino mice NMRI. The conditions noted are these: Mus musculus; oral; dose which prolongs the reaction time by 50%; mice; read-out: Analgesic action, tail flick test ED50. As for the experimental part:
as §1
(a) Tail flick test: Albino mice are exposed to thermal pain, from a focused heat ray, at the tail root, and the time which elapses before the tail is drawn away is recorded. This time is usually in the range of from 4 to 5 seconds. The substances tested cause a delayed reaction to the thermal pain, that is a reduced thermal pain reaction. The dose which prolongs the reaction time by 50% is determined. Literature: D'Amour, F. E., and Smith, D. L., (1941) J. Pharmacol. Exp. Ther. 72, 74.
For orientation: Thermal pain tests record how soon the animal reacts.

The test system of the next data set is acetic acid writhing. The data set is described as follows: Acetic acid writhing test (analgesia). The class given is in vivo, female albino mice NMRI. The conditions noted are these: Mus musculus, read-out: Analgesic action, acetic acid writhing test ED50. As for the experimental part:
as §1
(b) Writhing test (acetic acid writhing): intraperitoneal injection of 0.2 ml/20 g of body weight of mouse of a 0.75% strength acetic acid solution induces in albino mice a typical syndrome proceeding over the body with dorsal flection, called "writhing". These "writhes" (occurring in the course of the first half hour after administration) are counted over a period of 5 to 20 minutes after administration of acetic acid. The substances tested (administered 30 minutes before the acetic acid injection) cause a reduction in the number of writhing syndromes. The dose which reduces the number thereof by 50%, relative to the daily control, is determined. Literature: Koster, Anderson, de Beer (1959) Fed.Proc. 18, 412.

A short description of data set [1]: Determination of the lethal effect (acute toxicity). The arrangement: species or system female albino mice NMRI. The conditions noted are these: mouse, in vivo; oral; mice; observation time 7 days. As for the experimental part:
as §1
The mice were given food (Altromin®) and water ad libitum. The substances to be tested were administered orally as solutions of varying concentration in a volume of from 10 to 20 ml/kg using a stomach tube; 5 animals per dose were kept in Macrolon cages, type II. The observation time was 7 days. […] Literature: Litchfield and Wilkoxon ([…]) J. Pharm. Exp. Therap. 96/2, 99.

Where [2] appears, read: read-out: Antiptotic action, Reserpine antagonism ED50, oral, 5 hours after administration, reserpine 2 mg/kg s.c., mice.
Setting [3] is: oral, 6 hours after administration, reserpine 2 mg/kg s.c., mice, read-out: Antiptotic action, Reserpine antagonism ED50, 6 hours after administration.
Where [4] appears, read: oral, 7 hours after administration, reserpine 2 mg/kg s.c., mice, read-out: Antiptotic action, Reserpine antagonism ED50, 7 hours after administration.
Setting [5] is: oral, 30 minutes before acetic acid, dose which reduces writhes by 50%, mice.
The mark [6] stands for this setting: po, 5 h, read-out: Antiptotic action, Reserpine antagonism ED50, 5 hours after administration.
Where [7] appears, read: po, 6 h, read-out: Antiptotic action, Reserpine antagonism ED50, 6 hours after administration.
[8] abbreviates: po, 7 h, read-out: Antiptotic action, Reserpine antagonism ED50, 7 hours after administration.

On to `CN(C)CCCN1c2ccccc2CCc2ccccc21` [Serial No. 1, Imipramine, reference compound], for which the ED50 is 18 mg/kg in the data set on Reserpine ptosis (setting [2]); 50 mg/kg in the data set on Reserpine ptosis (setting [3]); 100 mg/kg in the data set with Reserpine ptosis (setting [4]); more than 50 mg/kg in the data set on thermal pain; more than 100 mg/kg in the data set with acetic acid writhing (setting [5]).
For `CC(C)(C)N1CCC(Oc2ccc([N+](=O)[O-])cc2)(c2ccccc2)CC1` [Serial No. 9, 1-(tert.-Butyl)-4-(4-nitrophenoxy)-4-phenylpiperidine], the ED50 with acetic acid writhing (po) amounted to 10 mg/kg.
Turning to `CN1CCC(Oc2ccccc2)(c2ccccc2)CC1` [compound 2], the ED50 was found to be 2.1 mg/kg in the data set with Reserpine ptosis (setting [6]), 2.7 mg/kg in the data set with Reserpine ptosis (setting [7]), 4 mg/kg in the data set with Reserpine ptosis (setting [8]) and 35 mg/kg in the data set with thermal pain. Also, in data set [1], the LD50 at 168 h turned out to be 220 mg/kg.
As for `CN1CCC(Oc2ccc([N+](=O)[O-])cc2)(c2ccccc2)CC1` [compound 3], the ED50 in the data set with Reserpine ptosis (setting [6]) is 0.7 mg/kg; with Reserpine ptosis (setting [7]) it was 2 mg/kg; in the data set with Reserpine ptosis (setting [8]), 5.8 mg/kg; in the data set with thermal pain it was 50 mg/kg. For the same compound, the LD50 at 168 h in data set [1] stood at 140 mg/kg.
Take `CN1CCC(Cc2ccccc2)(Oc2ccc(N)cc2)CC1` [compound 4]: the ED50 in the data set on Reserpine ptosis (setting [2]) stood at 9.5 mg/kg; with Reserpine ptosis (setting [3]), 24 mg/kg; in the data set on Reserpine ptosis (setting [4]), 50 mg/kg; in the data set on thermal pain, 2 mg/kg; with acetic acid writhing (setting [5]), 27 mg/kg. Besides, the LD50 at 168 h in data set [1] was 180 mg/kg.
Take `CN1CCC(Oc2ccc(N)cc2)(c2ccccc2)CC1` [compound 5]: the ED50 with Reserpine ptosis (setting [6]) came to 0.7 mg/kg; with Reserpine ptosis (setting [7]) it was 3 mg/kg; with Reserpine ptosis (setting [8]), 10 mg/kg; with thermal pain, 12 mg/kg; in the data set with acetic acid writhing (po), 7 mg/kg. Moreover, the LD50 at 168 h in data set [1] turned out to be 160 mg/kg.
For the compound `CN1CCC(Cc2ccccc2)(Oc2ccc([N+](=O)[O-])cc2)CC1` [compound 6], the ED50 in the data set on thermal pain is more than 75 mg/kg; in the data set with acetic acid writhing (setting [5]) it was 35 mg/kg. The compound further had a 50% lethal dose (LD50) at 168 h in data set [1] of 290 mg/kg.
Taken in the same sequence, the figures for `CN1CCC(Cc2ccccc2)(Oc2ccccc2)CC1` [compound 7] were 55 mg/kg, 27 mg/kg and 300 mg/kg.
With `c1ccc(OC2(c3ccccc3)CCNCC2)cc1` [compound 8], the ED50 with Reserpine ptosis (setting [2]) was approximately 25 mg/kg; in the data set on Reserpine ptosis (setting [3]), more than 50 mg/kg; with Reserpine ptosis (setting [4]), more than 50 mg/kg; with thermal pain, 25 mg/kg; in the data set on acetic acid writhing (setting [5]), 50 mg/kg. In addition, the LD50 at 168 h in data set [1] is more than 200 mg/kg.
On to `CC(=O)Nc1ccc(OC2(c3ccccc3)CCN(C)CC2)cc1` [compound 10], for which the ED50 in the data set with Reserpine ptosis (setting [6]) is less than 10 mg/kg; in the data set on Reserpine ptosis (setting [7]), less than 10 mg/kg; in the data set on Reserpine ptosis (setting [8]), less than 10 mg/kg; in the data set with thermal pain it was 12.5 mg/kg; in the data set on acetic acid writhing (po), 10 mg/kg. Also, in data set [1], the LD50 at 168 h fell in the range of 100 to 200 mg/kg.

As a reminder, the LD50 is the dose expected to kill half of the subjects tested. Lower therefore signals greater toxicity.
